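Compound exposure: 48 hours, 5 concentrations, 96-well plates. GI50 = concentration required for 50% inhibition of growth.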 Activity calls are given as the source filed them. Cut-off read from the data, not from the text of the source: active = GI50 up to about 1.1 µM and inactive = higher. Square brackets hold non-standard residues; d marks the D form. Peptide text beside a SMILES is read from it. * marks the point of attachment. X26 = COC1=CC(=O)N(C(=O)[C@@H](O*)C(C)C)[C@H]1Cc1ccccc1; Bn2Val = CC(C)[C@@H](C(=O)*)N(Cc1ccccc1)Cc1ccccc1; NMeV = CN[C@H](C(=O)O)C(C)C; dNMeA = CN[C@H](C)C(=O)O
Legend:
Assay in all cases: NCI-60 cell line screen, 48 h
HCT-15 = system: HCT-15
UACC-62 = system: UACC-62
SF-295 = system: SF-295
LOX IMVI = system: LOX IMVI
CCRF-CEM = system: CCRF-CEM
NCI-H23 = system: NCI-H23
OVCAR-5 = system: OVCAR-5
786-0 = system: 786-0
COLO 205 = system: COLO 205
MDA-N = system: MDA-N
HL-60 = system: HL-60
U-251 = system: U-251
HOP-92 = system: HOP-92
M14 = system: M14
SNB-19 = system: SNB-19
HOP-62 = system: HOP-62
DU-145 = system: DU-145
OVCAR-3 = system: OVCAR-3
K562 = system: K562
SK-OV-3 = system: SK-OV-3

Structure (SMILES) | GI50 (HCT-15) [µM] | GI50 (UACC-62) | GI50 (SF-295) | GI50 (LOX IMVI) | GI50 (CCRF-CEM) | GI50 (NCI-H23) | GI50 (OVCAR-5) | GI50 (786-0) | GI50 (COLO 205) | GI50 (MDA-N) | GI50 (HL-60) | GI50 (U-251) | GI50 (HOP-92) | GI50 (M14) | GI50 (SNB-19) | GI50 (HOP-62) | GI50 (DU-145) | GI50 (OVCAR-3) | GI50 (K562) | GI50 (SK-OV-3)
COc1ccc(C2N(c3ccc(F)c([N+](=O)[O-])c3)C(=O)N3C(c4ccc(OC)cc4)N(c4ccc(F)c([N+](=O)[O-])c4)C(=O)N23)cc1 (stereo not drawn) | > 100 | > 100 µM (inactive) | > 100 µM (inactive) | > 100 µM (inactive) | > 100 µM (inactive) | > 100 µM (inactive) | > 100 µM (inactive) | > 100 µM (inactive) | > 100 µM (inactive) | > 100 µM (inactive) | > 100 µM (inactive) | > 100 µM (inactive) | 23.1 µM (inactive) | 65.9 µM (inactive) | > 100 µM (inactive) | > 100 µM (inactive) | > 100 µM (inactive) | > 100 µM (inactive) | – | –
COC1=CC(=O)N(C(=O)[C@@H](OC(=O)[C@@H](C)N(C)C(=O)[C@@H]2CCCN2C(=O)[C@H](C(C)C)N(C)C(=O)[C@@H](NC(=O)[C@H](C(C)C)N(Cc2ccccc2)Cc2ccccc2)C(C)C)C(C)C)[C@H]1Cc1ccccc1 (Bn2Val-V[NMeV]P[dNMeA]-X26) | > 100 | > 60.7 µM (inactive) | > 71.3 µM (inactive) | > 100 µM (inactive) | > 100 µM (inactive) | – | > 100 µM (inactive) | 98.2 µM (inactive) | > 100 µM (inactive) | > 100 µM (inactive) | – | 11.4 µM (inactive) | > 49.3 µM (inactive) | 68.1 µM (inactive) | > 90.2 µM (inactive) | > 57.3 µM (inactive) | > 100 µM (inactive) | > 100 µM (inactive) | 6.78 µM (inactive) | > 100 µM (inactive)
O=C(Nc1ccccc1C(=O)Nc1nccs1)c1ccccc1 | 4.37 | 25.2 µM (inactive) | 25.8 µM (inactive) | 4.83 µM (inactive) | 4.98 µM (inactive) | 65.8 µM (inactive) | > 100 µM (inactive) | 16.4 µM (inactive) | 4.04 µM (inactive) | 19.5 µM (inactive) | 3.82 µM (inactive) | 6.52 µM (inactive) | – | 19.7 µM (inactive) | 31.9 µM (inactive) | 16.6 µM (inactive) | 13.6 µM (inactive) | 3.98 µM (inactive) | 11.2 µM (inactive) | 23.2 µM (inactive)
Cc1c2c(n(Cc3ccccn3)c1C)NN=C(C#N)S2(=O)=O | > 100 | > 100 µM (inactive) | > 100 µM (inactive) | > 100 µM (inactive) | – | > 100 µM (inactive) | > 100 µM (inactive) | > 100 µM (inactive) | > 100 µM (inactive) | > 100 µM (inactive) | – | > 100 µM (inactive) | > 100 µM (inactive) | > 100 µM (inactive) | > 100 µM (inactive) | > 100 µM (inactive) | > 100 µM (inactive) | > 100 µM (inactive) | – | > 100 µM (inactive)
Cn1c(=O)n2n(c1=O)C(S(=O)(=O)c1ccccc1)C2 (stereo not drawn) | > 100 | > 100 µM (inactive) | > 100 µM (inactive) | > 100 µM (inactive) | > 100 µM (inactive) | > 100 µM (inactive) | > 100 µM (inactive) | > 100 µM (inactive) | > 100 µM (inactive) | > 100 µM (inactive) | – | > 100 µM (inactive) | > 100 µM (inactive) | > 100 µM (inactive) | > 100 µM (inactive) | > 100 µM (inactive) | > 100 µM (inactive) | > 100 µM (inactive) | > 100 µM (inactive) | > 100 µM (inactive)
Cc1[nH]c(=O)[nH]c(=O)c1N(CCF)CCCl [FLUORODOPAN] | – | 283 µM (inactive) | 284 µM (inactive) | – | 57.4 µM (inactive) | 348 µM (inactive) | 483 µM (inactive) | 451 µM (inactive) | 394 µM (inactive) | 409 µM (inactive) | 70.8 µM (inactive) | 369 µM (inactive) | 109 µM (inactive) | 381 µM (inactive) | 316 µM (inactive) | 318 µM (inactive) | 582 µM (inactive) | 442 µM (inactive) | 244 µM (inactive) | 536 µM (inactive)
COc1cccc(C2c3cc4c(cc3OC(NNc3ccccc3)C2C)OCO4)c1OC (stereo not drawn) | 2.18 | 2.78 µM (inactive) | 0.678 µM (active) | 16.5 µM (inactive) | 3.72 µM (inactive) | 10.7 µM (inactive) | 6.62 µM (inactive) | 19.4 µM (inactive) | 3.77 µM (inactive) | 5.46 µM (inactive) | 4.05 µM (inactive) | 6.04 µM (inactive) | – | 5.06 µM (inactive) | 17.6 µM (inactive) | 3.64 µM (inactive) | 5.19 µM (inactive) | 4.4 µM (inactive) | 1.49 µM (inactive) | 49.1 µM (inactive)

Source: ChEMBL document CHEMBL1201862, “PubChem BioAssay data set” (2004)
